Patent publication EP4640686A1, “DEGRADER FOR DEGRADING BRD PROTEIN AND PHARMACEUTICAL COMPOSITION CONTAINING SAME” (Innocure Therapeutics, Inc., priority 2022, dated 2024)
pIC50: −log10 of the molar value. Read-outs that look alike come from different tables or passages of the source.

Experiments:
Type in all cases: cell-based
BRD4 = BRD4 (Homo sapiens, UniProt O60885); experiment: BRD4 protein degradation by western blotting in RPMI2650 cells (24 h treatment); parameters: To evaluate the resolution of PROTAC for BRD4 expressed in cells; endogenous in cells; host or cells: RPMI2650
Procedure: (§1) The synthesized compounds were prepared with a 10 mM or 50 mM raw material solution dissolved in DMSO [dimethyl sulfoxide], and were diluted sequentially and treated. [RPMI2650] and [SNU2972] were cultivated under specific conditions.
(§2) To evaluate the resolution of PROTAC for BRD4 expressed in cells, cells were dispensed in a concentration of 5 X 10^5 cells/well in a 6-well plate, and the sample was treated for 24 hours. […] Protein expression was normalized based on the expression value of β or GAPDH, and protein expression in each sample was measured as % based on 100% of samples treated with 0.1% DMSO vehicle. Protein expression was quantified using Image J program. Change in protein expression volume by compound treatment (DC50: concentration of compounds where 50% protein expression inhibition is achieved) was calculated using the GraphicPad Prism 8.0 software.

BRD4-NUT = molecular target: T1, BRD4-NUT (Homo sapiens, UniProt O60885+Q86Y26); experiment: BRD4-NUT protein degradation by western blotting in RPMI2650 cells (24 h treatment)
T1 construct: endogenous in cells; host or cells: RPMI2650
Procedure: as §1, §2

RPMI2650 = experiment: Cancer cell antiproliferative activity / cell viability in RPMI2650 cells (72 h treatment)
Procedure: The human breast cancer cell line [MDA-MB-231] was cultured in RPMI medium with the addition of 10% fetal bovine serum, penicillin [100U/ml], and streptomycin [[…]]. The synthesized compounds were prepared with a 10 mM or 50 mM raw material solution dissolved in DMSO [dimethyl sulfoxide], and were diluted sequentially and treated. [RPMI2650] and [SNU2972] were cultivated under specific conditions.
To observe cell growth inhibition, cells were dispensed in a concentration of 5,000 cells/well in a 96-well plate, and samples prepared at various concentrations were treated for 72 hours. The IC50 value (the concentration of the compound achieving 50% cytostaticism) is the average value of the results of three independent measurements.

[1] = read-out: BR04 (DC50), RPMI2650
[2] = read-out: BRD4-NUT (DC50), RPMI2650
[3] = Homo sapiens, RPMI-2650, RPMI2650, read-out: BRD4 (IC50)
[4] = RPM12650, read-out: BRD4 (DC50)
[5] = Homo sapiens, RPMI-2650, RPM12650, read-out: Cell Viatility (IC50)
[6] = RPM12650, read-out: BRD4-NUT (DC50)

SMILES | DC50 (BRD4; [1]) [µM] | DC50 (BRD4-NUT; [2]) [µM] | pIC50 (RPMI2650; [3]) | DC50 (BRD4-NUT; RPMI2650, read-out: BRD4-NUT (DC50)) [µM] | DC50 (BRD4; [4]) [µM] | pIC50 (RPMI2650; [5]) | DC50 (BRD4-NUT; [6]) [µM] | pIC50 (RPMI2650; RPM12650, read-out: Cell Viatility (IC50))
Cc1sc2c(c1C)C(c1ccc(Cl)cc1)=N[C@@H](CC(=O)Nc1ccc(OCCCC#Cc3ccc4c(=O)n(C5CCC(=O)NC5=O)ncc4c3)cc1)c1nnc(C)n1-2 (stereo partly drawn) [ICT-0001409, 2-[(9S)-7-(4-chlorophenyl)-4,5,13-trimethyl-3-thia-1,8,11,12-tetraazatricyclo[8.3.0.0^2,^6]trideca-2(6),4,7,10,12-pentaene-9-yl]-N-[4-({5-[2-(2,6-dioxopiperidin-3-yl)-1-oxo-1,2-dihydroptalazine-6-yl]pent-4-phosphorus-1-yl}oxy)phenyl]acetamide] | > 1 | > 1 |  |  |  |  |  | 
Cc1sc2c(c1C)C(c1ccc(Cl)cc1)=N[C@@H](CC(=O)Nc1ccc(OCCCCCc3ccc4c(=O)n(C5CCC(=O)NC5=O)ncc4c3)cc1)c1nnc(C)n1-2 (stereo partly drawn) [ICT-0001411, 2-[(9S)-7-(4-chlorophenyl)-4,5,13-trimethyl-3-thia-1,8,11,12-tetraazatricyclo[8.3.0.0^2,^6]trideca-2(6),4,7,10,12-pentaene-9-yl]-N-[4-({5-[2-(2,6-dioxopiperidin-3-yl)-1-oxo-1,2-dihydroptalazine-6-yl]pentyl}oxy)phenyl)acetamide] | > 1 | > 1 |  |  |  |  |  | 
Cc1sc2c(c1C)C(c1ccc(Cl)cc1)=N[C@@H](CC(=O)Nc1ccc(OC[C@@H]3CN(c4ccc5c(=O)n(C6CCC(=O)NC6=O)nc(C)c5c4)CCO3)cc1)c1nnc(C)n1-2 (stereo partly drawn) [ICT-0001430, 2-[(9S)-7-(4-chlorophenyl)-4,5,13-trimethyl-3-thia-1,8,11,12-tetraazatricyclo[8.3.0.0^2,^6]trideca-2(6),4,7,10,12-pentaene-9-yl]-N-(4-{[(2S)-4-[2-(2,6-dioxopiperidin-3-yl)-4-methyl-1-oxo-1,2-dihydroptalazine-6-yl]morpholine-2-yl]methoxy}phenyl)acetamide] | < 0.1 | < 0.1 | 6.00 to 7.00 |  |  |  |  | 
Cc1sc2c(c1C)C(c1ccc(Cl)cc1)=N[C@@H](CC(=O)Nc1ccc(CN3CCN(c4ccc(NC5CCC(=O)NC5=O)cc4F)CC3)cc1)c1nnc(C)n1-2 (stereo partly drawn) [ICT-0001441, 2-[(9S)-7-(4-chlorophenyl)-4,5,13-trimethyl-3-thia-1,8,11,12-tetraazatricyclo[8.3.0.0^2,^6]trideca-2(6),4,7,10,12-pentaene-9-yl]-N-{4-[(4-{4-[(2,6-dioxopiperidine-3-yl)amino]-2-fluorophenyl}piperazine-1-yl)methyl]phenyl}acetamide] | < 0.1 |  | > 7.00 | < 0.1 |  |  |  | 
CC[C@@H]1c2nnc(C)n2-c2cnc(Nc3ccc(C(=O)NCCCC#Cc4ccc5c(=O)n(C6CCC(=O)NC6=O)ncc5c4)cc3OC)nc2N1CC1CCCCC1 (stereo partly drawn) [ICT-0001515, 4-(((R)-5-(cyclohexylmethyl)-4-ethyl-1-methyl-4,5-dihydro-[1,2,4]triazolo[4,3-f]pteridine-7-yl)amino)-N-(5-(2-(2,6-dioxopiperidin-3-yl)-1-oxo-1,2-dihydroptalazine-6-yl)pent-4-phosphorus-1-yl)-3-methoxybenzamide] |  |  |  |  | > 1 | < 6.00 | > 1 | 
CC[C@@H]1c2nnc(C)n2-c2cnc(Nc3ccc(C(=O)N4CCN(CC5CCN(c6ccc7c(=O)n(C8CCC(=O)NC8=O)nc(C)c7c6)CC5)CC4)cc3OC)nc2N1CC1CCCCC1 (stereo partly drawn) [ICT-0001516, 3-(6-(4-((4-(4-(((R)-5-(cyclohexylmethyl)-4-ethyl-1-methyl-4,5-dihydro-[1,2,4]triazolo[4,3-f]pteridine-7-yl)amino)3-methoxybenzoyl)piperazine-1-il)methyl)piperidine-1-yl)4-methyl-1-oxopthalazine-2(1H)-yl)piperidine-2,6-dione] |  |  |  |  | < 0.1 | < 6.00 | < 0.1 | 
CC[C@@H]1c2nnc(C)n2-c2cnc(Nc3ccc(C(=O)N4CCN(c5ccc(NC6CCC(=O)NC6=O)cc5F)CC4)cc3OC)nc2N1CC1CCCCC1 (stereo partly shown) [ICT-0001517] |  |  |  |  | < 0.1 | > 7.00 | < 0.1 | 
CC[C@@H]1c2nnc(C)n2-c2cnc(Nc3ccc(C(=O)N4CCN(CC5CCN(c6ccc(NC7CCC(=O)NC7=O)cc6F)CC5)CC4)cc3OC)nc2N1CC1CCCCC1 (stereo partly drawn) [ICT-0001518, 3-((4-(4-((4-(4-(((R)-5-(cyclohexylmethyl)-4-ethyl-1-methyl-4,5-dihydro-[1,2,4]triazolo[4,3-f]pteridine-7-yl)amino)3-methoxybenzoyl)piperazine-1-il)methyl)piperidine-1-yl)-3-fluorophenyl)amino)piperidine-2,6-dione] |  |  |  |  | < 0.1 | 6.00 to 7.00 | < 0.1 | 
CC[C@@H]1c2nnc(C)n2-c2cnc(Nc3ccc(C(=O)NC4CCN(CCCC#Cc5ccc6c(=O)n(C7CCC(=O)NC7=O)ncc6c5)CC4)cc3OC)nc2N1CC1CCCCC1 (stereo partly drawn) [ICT-0001534, 4-(((R)-5-(cyclohexylmethyl)-4-ethyl-1-methyl-4,5-dihydro-[1,2,4]triazolo[4,3-f]pteridine-7-yl)amino)N-(1-(5-(2-(2,6-dioxopiperidin-3-yl)1-oxo-1,2-dihydroptalazine-6-yl)pent-4-phosphorus-1-yl)piperidine-4-yl)-3-methoxybenzamide] |  |  |  |  | > 1 | < 6.00 | > 1 | 
CC[C@@H]1c2nnc(C)n2-c2cnc(Nc3ccc(C(=O)N4CCO[C@@H](CN5CCN(c6ccc7c(=O)n(C8CCC(=O)NC8=O)nc(C)c7c6)CC5)C4)cc3OC)nc2N1CC1CCCCC1 (stereo partly drawn) [ICT-0001548, 3-(6-(4-(((S)-4-(4-(((R)-5-(cyclohexylmethyl)-4-ethyl-1-methyl-4,5-dihydro-[1,2,4]triazolo[4,3-f]pteridine-7-yl)amino)3-methoxybenzoyl)morpholine-2-il)methyl)piperazine-1-yl)4-methyl-1-oxopthalazine-2(1H)-yl)piperidine-2,6-dione] |  |  |  |  | < 0.1 |  | < 0.1 | < 6.00
CC[C@@H]1c2nnc(C)n2-c2cnc(Nc3ccc(C(=O)NCCOCCOCCOCCNc4cccc5cnn(C6CCC(=O)NC6=O)c(=O)c45)cc3OC)nc2N1CC1CCCCC1 (stereo partly shown) [ICT-0001549] |  |  |  |  | < 0.1 | 6.00 to 7.00 | > 1 | 
CC[C@@H]1c2nnc(C)n2-c2cnc(Nc3ccc(C(=O)N4CCC(CN5CCN(c6ccc7c(=O)n(C8CCC(=O)NC8=O)nc(C)c7c6)CC5)CC4)cc3OC)nc2N1CC1CCCCC1 (stereo partly drawn) [ICT-0001553, 3-(6-(4-(1-(4-(((R)-5-(cyclohexylmethyl)-4-ethyl-1-methyl-4,5-dihydro-[1,2,4]triazolo[4,3-f]pteridine-7-yl)amino)3-methoxybenzoyl)piperidine-4-yl)piperazine-1-yl)4-methyl-1-oxopthalazine-2(1H)-yl)piperidine-2,6-dione] |  |  |  |  | < 0.1 | < 6.00 | 0.1 to 1 | 
CC[C@H]1c2nnc(C)n2-c2cnc(Nc3ccc(C(=O)N4CCN(c5ccc(NC6CCC(=O)N(C)C6=O)cc5F)CC4)c(OC)c3)nc2N1CC1CCCCC1 (stereo partly drawn) [ICT-0001554, 3-({4-[4-(4-{[(4S)-5-(cyclohexylmethyl)-4-ethyl-1-methyl-4H,5H-[1,2,4]triazolo[4,3-f]pteridine-7-yl]amino}-2-methoxybenzoyl)piperazine-1-yl]-3-fluorophenyl}amino)-1-methylpiperidine-2,6-dione] |  |  |  |  | > 1 | < 6.00 | > 1 | 
CC[C@@H]1c2nnc(C)n2-c2cnc(Nc3ccc(C(=O)N4CCC(N5CCN(c6ccc7c(=O)n(C8CCC(=O)NC8=O)nc(C)c7c6)CC5)CC4)cc3OC)nc2N1CC1CCCCC1 (stereo partly drawn) [ICT-0001556, 3-(6-(4-(1-(4-(((R)-5-(cyclohexylmethyl)-4-ethyl-1-methyl-4,5-dihydro-[1,2,4]triazolo[4,3-f]pteridine-7-yl)amino)3-methoxybenzoyl)piperidine-4-yl)piperazine-1-yl)4-methyl-1-oxopthalazine-2(1H)-yl)piperidine-2,6-dione] |  |  |  |  | < 0.1 | < 6.00 | < 0.1 | 
CC[C@@H]1c2nnc(C)n2-c2cnc(Nc3ccc(C(=O)N4CC(CN5CCN(c6ccc7c(=O)n(C8CCC(=O)NC8=O)nc(C)c7c6)CC5)C4)cc3OC)nc2N1CC1CCCCC1 (stereo partly drawn) [ICT-0001557, 3-(6-(4-((1-(4-(((R)-5-(cyclohexylmethyl)-4-ethyl-1-methyl-4,5-dihydro-[1,2,4]triazolo[4,3-f]pteridine-7-yl)amino)3-methoxybenzoyl)azetidine-3-yl)methyl)piperazine-1-yl)4-methyl-1-oxopthalazine-2(1H)-yl)piperidine-2,6-dione] |  |  |  |  | < 0.1 | < 6.00 | > 1 | 
